The results in this text go back to ChEMBL document CHEMBL1201862, “PubChem BioAssay data set” (2004).

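In this assay, cells in 96-well plates receive the compound at five concentrations for 48 hours. Endpoints are linearly interpolated between the surrounding concentrations. Abbreviation: GI50, concentration required for 50% inhibition of growth.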 Active and inactive are the calls of the source. Rule as the data show it: active = GI50 up to about 1.1 µM and inactive = higher.

Some test systems named below: A498; DU-145; HCT-15; HL-60; K562; MCF7; MDA-MB-231; MDA-MB-435; MDA-N; NCI-H23; OVCAR-3; OVCAR-4; RXF 393; SF-295; SF-539; SN12C; SR; UACC-257; UACC-62; UO-31.
What all share (assay): inhibition of tumour cell growth, NCI panel, 48 h

Turning to `O=C(O)C1(C(=O)O)CCN(S(=O)(=O)c2ccccc2)CC1`, the GI50 was > 100 µM (inactive) with A498; > 100 µM (inactive) with DU-145; more than 100 µM in the experiment with HCT-15; > 100 µM (inactive) in the experiment on HL-60; > 100 µM (inactive) in the experiment with K562; > 100 µM (inactive) in the experiment with MCF7. Also, the GI50 in the experiment on MDA-MB-231, in the experiment with MDA-MB-435, in the experiment on MDA-N, in the experiment on NCI-H23, in the experiment with OVCAR-3 and in the experiment on OVCAR-4 was > 100 µM (inactive) each time. The GI50 with RXF 393, with SF-295, in the experiment on SF-539, in the experiment with SN12C, in the experiment with SR and in the experiment on UACC-257 was > 100 µM (inactive) in each case. Also, the GI50 in the experiment with UACC-62 and with UO-31 was > 100 µM (inactive) in each case.

For `O=C(c1ccc([N+](=O)[O-])cc1)N1CCCC1`, the GI50 in the experiment on A498 was > 100 µM (inactive); with DU-145, > 100 µM (inactive); in the experiment with HCT-15, more than 100 µM; in the experiment on HL-60, > 100 µM (inactive); in the experiment on K562, > 100 µM (inactive); with MCF7 it was > 100 µM (inactive). For the same compound, the GI50 in the experiment with MDA-MB-231, with MDA-MB-435, in the experiment with MDA-N, in the experiment with NCI-H23, in the experiment with OVCAR-3 and in the experiment with OVCAR-4 was > 100 µM (inactive) each time. The GI50 in the experiment with RXF 393 was > 100 µM (inactive); in the experiment on SF-295, > 100 µM (inactive); in the experiment on SF-539 it was > 100 µM (inactive); in the experiment on SN12C it was 17.7 µM (inactive); with SR it was > 100 µM (inactive); with UACC-257, > 100 µM (inactive). Besides, the GI50 in the experiment on UACC-62 was 66.1 µM (inactive); in the experiment with UO-31, > 100 µM (inactive).

Take `Cc1nc2ccc(Cl)cc2c2c1CCO2`: the GI50 in the experiment on A498 is 71 µM (inactive); with DU-145, 86.5 µM (inactive); in the experiment on HCT-15, 90.2 µM; with HL-60 it was 41.5 µM (inactive); with K562, > 100 µM (inactive); in the experiment on MCF7 it was > 100 µM (inactive). For the same compound, the GI50 is 43.5 µM (inactive) in the experiment with MDA-MB-231; > 100 µM (inactive) in the experiment on MDA-MB-435; 36.3 µM (inactive) in the experiment with MDA-N; > 100 µM (inactive) in the experiment on NCI-H23; 91.6 µM (inactive) with OVCAR-3; > 100 µM (inactive) in the experiment on OVCAR-4. Moreover, the GI50 was 24.4 µM (inactive) in the experiment on RXF 393; 75.7 µM (inactive) in the experiment on SF-295; 46.5 µM (inactive) in the experiment with SF-539; > 100 µM (inactive) in the experiment on SN12C; > 100 µM (inactive) with SR; > 100 µM (inactive) in the experiment on UACC-257. In addition, the figures for the GI50 in the experiment on UACC-62 and in the experiment on UO-31 were 71.9 µM (inactive) and 37.1 µM (inactive), respectively.

As to `COC(=O)C1=NN2c3ccccc3CN([C@@H](C)c3ccccc3)C(=O)[C@@H]2[C@H]1c1ccccc1`, the GI50 in the experiment on A498 was > 100 µM (inactive); with DU-145, > 100 µM (inactive); in the experiment with HCT-15, more than 100 µM; in the experiment on HL-60, > 100 µM (inactive); with K562, 13.3 µM (inactive); in the experiment with MCF7 it was > 100 µM (inactive). Further, the GI50 in the experiment with MDA-MB-231, with MDA-MB-435, in the experiment with MDA-N, in the experiment with NCI-H23, in the experiment on OVCAR-3 and with OVCAR-4 was > 100 µM (inactive) throughout. The GI50 with RXF 393 is > 100 µM (inactive); with SF-295, > 100 µM (inactive); in the experiment with SF-539, > 100 µM (inactive); in the experiment on SN12C, > 100 µM (inactive); with SR it was 63 µM (inactive); in the experiment on UACC-257, > 100 µM (inactive). Besides, the GI50 in the experiment with UACC-62 and in the experiment with UO-31 was > 100 µM (inactive) throughout.

Turning to `CC(=O)CC(O)(C(F)(F)Cl)C(F)(F)Cl`, the GI50 is > 10 µM (inactive) in the experiment with A498; > 10 µM (inactive) in the experiment with DU-145; more than 10 µM in the experiment on HCT-15; > 10 µM (inactive) with HL-60; > 10 µM (inactive) with K562; > 10 µM (inactive) in the experiment on MCF7. In addition, the GI50 in the experiment with MDA-MB-231, in the experiment on MDA-MB-435, in the experiment on MDA-N, in the experiment on NCI-H23, with OVCAR-3 and with OVCAR-4 was > 10 µM (inactive) each time. Besides, the GI50 in the experiment with RXF 393, in the experiment on SF-295, with SF-539, in the experiment on SN12C, in the experiment with SR and in the experiment with UACC-257 was > 10 µM (inactive) in each case. Further, the GI50 in the experiment on UACC-62 and in the experiment with UO-31 was > 10 µM (inactive) in each case.

Regarding `CC(C)NC(=O)OCc1c(COC(=O)NC(C)C)c(-c2ccc[n+](COC(=O)C(C)C)c2)n2c1CCC2`, the GI50 in the experiment with A498 is 23.1 µM (inactive); in the experiment with DU-145, 65.8 µM (inactive); in the experiment with HCT-15, more than 71.9 µM; in the experiment with HL-60, 16 µM (inactive); in the experiment on K562, 56.6 µM (inactive); with MCF7, 55.6 µM (inactive). The GI50 in the experiment with MDA-MB-231 is > 100 µM (inactive); with MDA-MB-435, > 100 µM (inactive); in the experiment on MDA-N it was > 100 µM (inactive); in the experiment with NCI-H23 it was 33.5 µM (inactive); in the experiment with OVCAR-3 it was > 67.8 µM (inactive); with OVCAR-4, > 87.3 µM (inactive). Moreover, the GI50 with RXF 393 is 42.4 µM (inactive); with SF-295 it was 68.9 µM (inactive); in the experiment with SF-539, 31.8 µM (inactive); in the experiment with SN12C, 37.5 µM (inactive); with SR, 8.53 µM (inactive); in the experiment on UACC-257, > 100 µM (inactive). The GI50 was 26.9 µM (inactive) with UACC-62 and 52.4 µM (inactive) in the experiment with UO-31.

For `COc1ccc([N+](=O)[O-])c2c(NCC(O)CO)ccnc12` (stereo not given), the GI50 in the experiment on A498 was 32.4 µM (inactive); with DU-145, 83.9 µM (inactive); in the experiment with HCT-15 it was 16.1 µM; in the experiment on HL-60, 51.1 µM (inactive); in the experiment on K562, 18.5 µM (inactive); with MCF7 it was 29 µM (inactive). The GI50 is 88.1 µM (inactive) with MDA-MB-231; > 100 µM (inactive) with MDA-MB-435; 49.3 µM (inactive) in the experiment with MDA-N; 18 µM (inactive) in the experiment on NCI-H23; 24.2 µM (inactive) in the experiment on OVCAR-3; 13.5 µM (inactive) with OVCAR-4. In addition, the GI50 was 28.1 µM (inactive) in the experiment with RXF 393; 39.8 µM (inactive) in the experiment with SF-295; 28.8 µM (inactive) with SF-539; 77.8 µM (inactive) in the experiment on SN12C; 34.4 µM (inactive) with SR; 28.1 µM (inactive) in the experiment on UACC-257. Besides, the values for the GI50 in the experiment on UACC-62 and in the experiment with UO-31 were 22 µM (inactive) and 63.1 µM (inactive), respectively.

As for `N#Cc1nc(C#N)c(N)[nH]1`, the GI50 in the experiment on A498 is > 100 µM (inactive); in the experiment with DU-145, > 100 µM (inactive); in the experiment on HCT-15, more than 100 µM; with HL-60 it was > 100 µM (inactive); in the experiment on K562 it was > 100 µM (inactive); in the experiment with MCF7 it was > 100 µM (inactive). Moreover, the GI50 in the experiment on MDA-MB-231, in the experiment with MDA-MB-435, in the experiment with MDA-N, in the experiment with NCI-H23, in the experiment on OVCAR-3 and in the experiment with OVCAR-4 was > 100 µM (inactive) in each case. Also, the GI50 in the experiment on RXF 393, with SF-295, in the experiment with SF-539, with SN12C, with SR and with UACC-257 was > 100 µM (inactive) each time. Moreover, the GI50 in the experiment with UACC-62 and in the experiment with UO-31 was > 100 µM (inactive) each time.

For `Brc1ccc(/N=N/N2CCCC2)cc1`, the GI50 in the experiment on A498 was 41.6 µM (inactive); in the experiment with DU-145, 49.7 µM (inactive); with HCT-15, 50.7 µM; in the experiment with HL-60 it was 38.8 µM (inactive); in the experiment on K562, 60 µM (inactive); in the experiment with MCF7, 65.8 µM (inactive). For the same compound, the GI50 in the experiment with MDA-MB-231 is > 100 µM (inactive); in the experiment with MDA-MB-435 it was 48.1 µM (inactive); with MDA-N, 64.9 µM (inactive); with NCI-H23, 45.2 µM (inactive); in the experiment on OVCAR-3 it was 81.5 µM (inactive); in the experiment on OVCAR-4, > 100 µM (inactive). Besides, the GI50 in the experiment with RXF 393 is 81.7 µM (inactive); in the experiment with SF-295, 77.1 µM (inactive); in the experiment on SF-539 it was > 100 µM (inactive); in the experiment on SN12C, 59 µM (inactive); in the experiment on SR it was 34.6 µM (inactive); in the experiment with UACC-257, 93.8 µM (inactive). Further, the GI50 in the experiment on UACC-62 was > 100 µM (inactive); with UO-31 it was 32.4 µM (inactive).

Consider `CN(C)CCn1c(=O)c2ccc(NCCNCCO)c3c(=O)c4cc(O)ccc4n(c1=O)c23`, for which the GI50 in the experiment on A498 was 1.93 µM (inactive); in the experiment on DU-145 it was 0.875 µM (active); in the experiment with HCT-15, 5.31 µM; in the experiment with HL-60 it was 1.47 µM (inactive); with K562, 0.991 µM (active); with MCF7, 0.465 µM (active). For the same compound, the GI50 with MDA-MB-231 is 0.586 µM (active); in the experiment with MDA-MB-435, 2.39 µM (inactive); with MDA-N, 2.2 µM (inactive); in the experiment on NCI-H23 it was 1.01 µM (active); in the experiment with OVCAR-3, 2.55 µM (inactive); in the experiment on OVCAR-4, 0.895 µM (active). Also, the GI50 is 0.586 µM (active) in the experiment with RXF 393; 1.6 µM (inactive) in the experiment on SF-295; 0.367 µM (active) with SF-539; 0.308 µM (active) with SN12C; < 0.0352 µM (active) with SR; 4.43 µM (inactive) in the experiment on UACC-257. Also, the values for the GI50 in the experiment on UACC-62 and in the experiment on UO-31 were 1.47 µM (inactive) and 3.05 µM (inactive), respectively.
